From ChEMBL document CHEMBL1821710, “Synthesis and antiproliferative evaluation of 3,5-disubstituted 1,2,4-triazoles containing flurophenyl and trifluoromethanephenyl moieties” (2011)

Experiments:
Assay type in all cases: functional
NCI-H226 = experiment: Growth inhibition of human NCI-H226 cells after 72 hrs by MTT assay; conditions: NCI-H226, 72 h
[1] = Growth inhibition of human NPC-TW01 cells after 72 hrs by MTT assay; conditions: NPC-TW01, 72 h
Jurkat = experiment: Growth inhibition of human Jurkat cells after 72 hrs by MTT assay

SMILES | GI50 (NCI-H226) [µM] | GI50 [1] [µM] | GI50 (Jurkat) [µM]
COC(=O)c1nc(C)n(-c2cccc(C(F)(F)F)c2)n1 | 14.3 | > 100 | 10.6
COC(=O)c1nc(C2CCCC2)n(-c2ccc(C(F)(F)F)cc2)n1 | 5.71 | 56.4 | > 100
CCOC(=O)c1nc(-c2ccc[nH]2)n(-c2ccc(F)cc2)n1 | 5.71 | 64.3 | > 100
COC(=O)c1nc(-c2ccc[nH]2)n(-c2ccc(F)cc2)n1 | 72 | 9.58 | 9.01
COC(=O)c1nc(-c2ccc3ccccc3c2)n(-c2ccc(F)cc2)n1 | 79.3 | > 100 | 18.5
COC(=O)c1nc(-c2ccsc2)n(-c2ccc(C(F)(F)F)cc2)n1 | 5.74 | 34.9 | > 100
COC(=O)c1nc(C)n(-c2ccc(F)cc2)n1 | 11.7 | 15.2 | 8.7
COC(=O)c1nc(C)n(-c2cccc(Br)c2)n1 | 7.35 | > 100 | > 100
COC(=O)c1nc(C)n(-c2ccccc2C(F)(F)F)n1 | 6.13 | > 100 | > 100
COC(=O)c1nc(C2CCCCC2)n(-c2ccc(C(F)(F)F)cc2)n1 | 5.76 | > 100 | > 100
COC(=O)c1nc(-c2ccsc2)n(-c2ccc(F)cc2)n1 | 6.94 | 10.7 | 54
CCCCc1nc(C(=O)OC)nn1-c1ccc(F)cc1 | 6.4 | > 100 | > 100
COC(=O)c1nc(C)n(-c2ccc(C(F)(F)F)cc2)n1 | 16.6 | > 100 | 9.1
COC(=O)c1nc(C2CCCC2)n(-c2ccc(F)cc2)n1 | 70.5 | 10.4 | 9.55
COC(=O)c1nc(-c2ccc[nH]2)n(-c2ccc(C(F)(F)F)cc2)n1 | 5.65 | > 100 | > 100
COC(=O)c1nc(C)n(-c2ccc(Cl)cc2)n1 | 84 | 17.5 | 65.9
COC(=O)c1nc(C)n(-c2ccc(OC)cc2)n1 | > 100 | 9.92 | > 100
COC(=O)c1nc(C2CC2)n(-c2ccc(F)cc2)n1 | 16.3 | 95.9 | 9.42
CCc1nc(C(=O)OC)nn1-c1ccc(F)cc1 | 71.3 | 15.8 | 11
COC(=O)c1nc(C(C)C)n(-c2ccc(F)cc2)n1 | 6.17 | > 100 | > 100
COC(=O)c1nc(-c2ccccc2)n(-c2ccc(F)cc2)n1 | 89.3 | 15.6 | 10
COC(=O)c1nc(-c2ccoc2)n(-c2ccc(F)cc2)n1 | 91.6 | 11.7 | 9.32
COC(=O)c1nc(-c2ccoc2)n(-c2ccc(C(F)(F)F)cc2)n1 | 6.01 | > 100 | 97.2
CN(Cc1cnc2nc(N)nc(N)c2n1)c1ccc(C(=O)N[C@@H](CCC(=O)O)C(=O)O)cc1 [METHOTREXATE] | 10.2 | 0.1 | 1.25
COC(=O)c1nc(C2CCCCC2)n(-c2ccc(F)cc2)n1 | 6.26 | 30.5 | > 100
COC(=O)c1nc(C)n(-c2ccccc2)n1 | > 100 | > 100 | > 100
CCOC(=O)c1nc(-c2ccc[nH]2)n(-c2ccc(C(F)(F)F)cc2)n1 | 5.61 | 76.4 | > 100
